{
  "source": "patent US10517926B2",
  "about": "“Oligopeptide having proinflammatory cytokine secretion-inhibiting activity” (Osaka University, priority 2015, dated 2019)",
  "key": {"RAW264.7 cells": {"tested_on": "RAW264.7 cells", "test": "Osteoclast-related mRNA expression (NFATc1, ACP5) by real-time RT-PCR", "type": "cell-based, mouse", "details": "MHP1 100 μg/ml, 3 days, FIG. 12A, 12B", "description": "It has recently been reported that the administration of RANKL protein to mice induces the activation of osteoclasts. Accordingly, the influence of the RANKL peptide on osteoclasts was examined. The specific examination procedures were as follows. MHP1 (final concentration: 100 μg/ml) or RANKL protein (final concentration: 10 ng/ml) was added to a medium (DMEM medium (+4% FBS)) in which RAW264.7 cells were cultured, and the cells were collected after 10 minutes and 3 days.\nFor the samples collected after 10 minutes, nuclear proteins of the cells were extracted using the Nuclear Extract Kit (Active Motif), and the degree of NFκB (p65) activation was measured by the TransAM NFkB p65 Kit (Active Motif). On the other hand, for the samples collected after 3 days, the mRNA expression levels of NFATc1 and ACP5 were analyzed by real-time RT-PCR."}, "THP1 cells": {"tested_on": "THP1 cells", "test": "Proinflammatory cytokine secretion inhibition, human macrophage cells", "type": "cell-based", "details": "MHP6 10-100 μg/ml or MHP1 100 μg/ml, LPS 2 ng/ml, 24 hours, FIG. 14", "description": "THP1 cells (human-derived macrophage cell line) were cultured in a DMEM medium (+4% FBS) containing MHP6 (human-derived; final concentration: 10, 30, 50, or 100 μg/ml) or MHP1 (mouse-derived; final concentration: 100 μg/ml), and LPS (final concentration: 2 ng/ml) for 24 hours by a standard method. After culture, the concentration of IL-6 in the medium was measured by the ELISA method."}, "[1]": {"tested_on": "cerebral infarction model mice", "test": "Osteoclasts after cerebral infarction in vivo (TRAP staining of radius)", "design": "species or system mouse", "details": "300 μG i.v. then 336 μg s.c.; radius distal portion, paralyzed side, 48 hours; FIG. 24", "description": "Cerebral infarction models were produced in the same manner as in Example 10. Four hours after the production of the cerebral infarction models, 300 μG/150 μL of MHP1 administration solution was administered through the cervical vein. Thereafter, 336 μg was continuously administered by subcutaneous injection using an Alzet pump for 21 hours. Forty-eight hours after the production of the cerebral infarction models, the radius distal portion of the left hand (paralyzed side) was stained with TRAP, and the ratio of the stained region (osteoclast surface) relative to the bone surface was calculated based on the obtained staining images."}},
  "data": [
    {"sequence": "LMVYVVKTSIKIPSSHNLMKGGSTKNWSGN (listed as Mus musculus) [MHP1]", "values": [
      {"measurement": "expression of osteoclast-related mRNA (NFATc1, ACP5)", "setting": "RAW264.7 cells", "result": "did not promote"},
      {"measurement": "proinflammatory cytokine (IL-6) secretion-inhibiting activity on human-derived macrophage cells", "setting": "THP1 cells", "result": "exhibited proinflammatory cytokine secretion-inhibiting activity"},
      {"measurement": "increase in the number of TRAP-positive osteoclasts on the bone ridge due to cerebral infarction", "setting": "[1]", "result": "suppressed"}
    ]}
  ]
}
